These results are taken from US4822790A, “1-Sulfo-2-oxoazetidine derivatives and their production” (Takeda Chemical Industries, Ltd., priority 1980, dated 1989).

The target of experiment [1] is T1, β-lactamase produced by Enterobacter cloacae PN 1282 (Enterobacter cloacae, UniProt P05364).
T1 construct: cephalothin substrate, micro-iodometric
Description: Inhibitor concentration required to inhibit the β-lactamase (cephalosporinase) activity by 50%, micro-iodometric method. The format is biochemical. The following applies: 0.05M phosphate buffer (pH 7), 30° C., 10 min preincubation, cephalothin 0.1 mM, read-out: I50 (inhibitor concentration required to inhibit the enzyme activity by 50%) (converted). As to the method:
"Determination of the inhibitor concentration required to inhibit the enzyme activity by 50%"
The β-lactamase produced by Enterobacter cloacae PN 1282 is used as a typical example of cephalosporinase. The β-lactamase is incubated in 0.05M phosphate buffer (pH 7) with an appropriate dilution of an inhibitor preparation at 30° C. for 10 minutes. Cephalothin is then added in an amount sufficient to produce a final concentration of 0.1 mM, and the enzymatic reaction is allowed to proceed for 10 minutes. The enzyme activity is determined by the micro-iodometric method [Journal of general Microbiology, vol. 33, page 121 (1963)]. Hereinafter, the inhibitor concentration required to inhibit the enzyme activity by 50% is expressed as I50.

Experiment [2] relates to Streptococcus pneumoniae Type I. Put plainly: Antibacterial test (MIC), Streptococcus pneumoniae Type I. The format is cell-based. The source says:
(§1) The following is media and compounds employed in the antibacterial test.
(§2) TSA=Trypticase soy agar [Baltimore Biologicals (U.S.A.)]
(§3) B-TSA=Blood trypticase soy agar

Experiment [3] relates to Pseudomonas aeruginosa U 31. Put plainly: Antibacterial test (MIC), Pseudomonas aeruginosa U 31. The experiment is classed as cell-based.
Description: as §1, §2, §3

Experiment [4] concerns Proteus morganii IFO 3168. Put plainly: Antibacterial test (MIC), Proteus morganii IFO 3168. The experiment is classed as cell-based.
Description: as §1, §2, §3

A further experiment deals with Candida albicans TA. Put plainly: Antibacterial test (MIC), Candida albicans TA. The experiment is classed as cell-based.
Description: as §1, §2, §3

The subject of experiment [5] is Corynebacterium diphtheriae Toronto. Put plainly: Antibacterial test (MIC), Corynebacterium diphtheriae Toronto. The experiment is classed as cell-based.
Description: as §1, §2, §3

Experiment [6] deals with Pseudomonas aeruginosa IFO 3455. Description: Antibacterial test (MIC), Pseudomonas aeruginosa IFO 3455. The experiment is classed as cell-based.
Description: as §1, §2, §3

Experiment [7] has as its system Serratia marcescens IFO 12648. Description: Antibacterial test (MIC), Serratia marcescens IFO 12648. The format is cell-based.
Description: as §1, §2, §3

The test system of experiment [8] is Streptococcus mitis America. Description: Antibacterial test (MIC), Streptococcus mitis America. The experiment is classed as cell-based.
Description: as §1, §2, §3

Another experiment relates to Escherichia coli 0-111. Put plainly: Antibacterial test (MIC), Escherichia coli 0-111. The format is cell-based. The following applies: medium TSA; for MIC: Escherichia coli, 0111, read-out: Minimum inhibitory concentration (MIC).
Description: as §1, §2, §3

Experiment [9] concerns Escherichia coli NIHJ JC-2. Description: Antibacterial test (MIC), Escherichia coli NIHJ JC-2. The experiment is classed as cell-based.
Description: as §1, §2, §3

In experiment [10] the test system is Streptococcus pyogenes S-8. Put plainly: Antibacterial test (MIC), Streptococcus pyogenes S-8. The experiment is classed as cell-based.
Description: as §1, §2, §3

Experiment [11] deals with Staphylococcus aureus 1840. Description: Antibacterial test (MIC), Staphylococcus aureus 1840. The experiment is classed as cell-based.
Description: as §1, §2, §3

The test system of experiment [12] is Acinetobacter calcoaceticus IFO 13006. Description: Antibacterial test (MIC), Acinetobacter calcoaceticus IFO 13006. The format is cell-based.
Description: as §1, §2, §3

For experiment [13], the system named is Streptococcus faecium IFO 3128. Put plainly: Antibacterial test (MIC), Streptococcus faecium IFO 3128. The experiment is classed as cell-based.
Description: as §1, §2, §3

Experiment [14] relates to Streptococcus pyogenes E-14. Put plainly: Antibacterial test (MIC), Streptococcus pyogenes E-14. The experiment is classed as cell-based.
Description: as §1, §2, §3

The next experiment concerns Klebsiella pneumoniae DT. Put plainly: Antibacterial test (MIC), Klebsiella pneumoniae DT. The experiment is classed as cell-based. The note with it: for MIC: Klebsiella pneumoniae, read-out: Minimum inhibitory concentration (MIC).
Description: as §1, §2, §3

The test system of experiment [15] is Bordetella bronchiseptica Sagami. Put plainly: Antibacterial test (MIC), Bordetella bronchiseptica Sagami. The experiment is classed as cell-based.
Description: as §1, §2, §3

Experiment [16] relates to Citrobacter freundii IFO 12681. Put plainly: Antibacterial test (MIC), Citrobacter freundii IFO 12681. The format is cell-based.
Description: as §1, §2, §3

For another experiment, the system named is Escherichia coli T-7. Description: Antibacterial test (MIC), Escherichia coli T-7. The experiment is classed as cell-based. The following applies: medium TSA.
Description: as §1, §2, §3

For experiment [17], the system named is Proteus mirabilis IFO 3849. Put plainly: Antibacterial test (MIC), Proteus mirabilis IFO 3849. The experiment is classed as cell-based.
Description: as §1, §2, §3

Experiment [18] deals with Staphylococcus aureus FDA209P. Put plainly: Antibacterial test (MIC), Staphylococcus aureus FDA209P. The format is cell-based.
Description: as §1, §2, §3

Experiment [19] relates to Staphylococcus aureus 308A-1. Description: Antibacterial test (MIC), Staphylococcus aureus 308A-1. The experiment is classed as cell-based.
Description: as §1, §2, §3

The subject of experiment [20] is Proteus vulgaris IFO 3988. Description: Antibacterial test (MIC), Proteus vulgaris IFO 3988. The following applies: for MIC: Proteus vulgaris, IFO3988, read-out: Minimum inhibitory concentration (MIC). The format is cell-based.
Description: as §1, §2, §3

In experiment [21] the test system is Enterobacter cloacae IFO 12937. Put plainly: Antibacterial test (MIC), Enterobacter cloacae IFO 12937. The format is cell-based.
Description: as §1, §2, §3

Experiment [22] has as its system Pseudomonas morganii IFO 3168. Description: Antibacterial test (MIC), Pseudomonas morganii IFO 3168. The format is cell-based. The note with it: IFO3168, medium TSA, read-out: Minimum inhibitory concentration (MIC).
Description: as §1, §2, §3

T1 sequence (P05364 21-381): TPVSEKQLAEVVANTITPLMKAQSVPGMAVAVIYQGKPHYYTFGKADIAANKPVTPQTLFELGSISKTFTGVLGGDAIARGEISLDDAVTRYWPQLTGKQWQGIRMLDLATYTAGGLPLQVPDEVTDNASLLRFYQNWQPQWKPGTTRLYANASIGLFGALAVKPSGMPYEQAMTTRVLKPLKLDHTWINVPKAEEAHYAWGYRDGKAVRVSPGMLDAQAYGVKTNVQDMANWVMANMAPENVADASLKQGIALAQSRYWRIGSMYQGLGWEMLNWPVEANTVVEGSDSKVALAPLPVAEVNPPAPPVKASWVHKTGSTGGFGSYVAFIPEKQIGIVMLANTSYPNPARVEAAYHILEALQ

As to `CS[C@@H]1[C@H](NC(=O)C(=NOC(C)(C)C(=O)O)c2csc(N)n2)C(=O)N1S(=O)(=O)O`, the IC50 in experiment [1] is 406 nM.
In the case of `CON=C(C(=O)NC1CN(S(=O)(=O)[O-])C1=O)c1csc(N)n1.[Na+]` (stereo not shown) [Compound A, Sodium 3-[2-(2-amino-4-thiazolyl)-2-methoxyiminoacetamido]-2-oxoazetidine-1-sulfonate], the MIC in experiment [2] (Streptococcus pneumoniae, read-out: Minimum inhibitory concentration (MIC)) was 12.5 µg/mL; in experiment [3] (Pseudomonas aeruginosa, U31, read-out: Minimum inhibitory concentration (MIC)), greater than 100 µg/mL; in [4] (Morganella morganii, IFO3168, read-out: Minimum inhibitory concentration (MIC)), 25 µg/mL; in the experiment with Candida albicans TA (Candida albicans, read-out: Minimum inhibitory concentration (MIC)), greater than 100 µg/mL; in experiment [5] (Corynebacterium diphtheriae, read-out: Minimum inhibitory concentration (MIC)), 1.56 µg/mL; in experiment [6] (Pseudomonas aeruginosa, IFO3455, read-out: Minimum inhibitory concentration (MIC)), 6.25 µg/mL. Further, the MIC in experiment [7] (Serratia marcescens, IFO12648, read-out: Minimum inhibitory concentration (MIC)) turned out to be 12.5 µg/mL; in experiment [8] (Streptococcus mitis, read-out: Minimum inhibitory concentration (MIC)), 25 µg/mL; in the experiment on Escherichia coli 0-111, 0.39 µg/mL; in experiment [9] (Escherichia coli, NIHJJC2, read-out: Minimum inhibitory concentration (MIC)), 0.78 µg/mL; in [10] (Streptococcus pyogenes, S8, read-out: Minimum inhibitory concentration (MIC)), 3.13 µg/mL; in experiment [11] (Staphylococcus aureus, 1840, read-out: Minimum inhibitory concentration (MIC)) it was 100 µg/mL. The MIC in experiment [12] (Acinetobacter calcoaceticus, IFO13006, read-out: Minimum inhibitory concentration (MIC)) was 6.25 µg/mL; in [13] (Enterococcus faecium, IFO3128, read-out: Minimum inhibitory concentration (MIC)) it was greater than 100 µg/mL; in experiment [14] (Streptococcus pyogenes, E14, read-out: Minimum inhibitory concentration (MIC)), 3.13 µg/mL; with Klebsiella pneumoniae DT, 0.78 µg/mL; in [15] (Bordetella bronchiseptica, read-out: Minimum inhibitory concentration (MIC)), 100 µg/mL; in experiment [16] (Citrobacter freundii, IFO12681, read-out: Minimum inhibitory concentration (MIC)), 1.56 µg/mL. In addition, the MIC with Escherichia coli T-7 (Escherichia coli, T7, read-out: Minimum inhibitory concentration (MIC)) was greater than 100 µg/mL; in [17] (Proteus mirabilis, IFO3849, read-out: Minimum inhibitory concentration (MIC)), 6.25 µg/mL; in experiment [18] (Staphylococcus aureus, FDA209P, read-out: Minimum inhibitory concentration (MIC)), 50 µg/mL; in [19] (Staphylococcus aureus, 308A1, read-out: Minimum inhibitory concentration (MIC)), 25 µg/mL; in experiment [20], 1.56 µg/mL; in experiment [21] (Enterobacter cloacae, IFO12937, read-out: Minimum inhibitory concentration (MIC)) it was greater than 100 µg/mL. The “Minimum inhibitory concentration (MIC)” value in experiment [18] (medium B-TSA) is 50 µg/mL.
Take `CCN1CCN(C(=O)NC(C(=O)NC2CN(S(=O)(=O)[O-])C2=O)c2cccs2)C(=O)C1=O.[Na+]` (racemic) [Compound E, Sodium 3-[DL-2-(4-ethyl-2,3-dioxo-1-piperazinocarboxamido)-2-thienylacetamido]-2-oxoazetidine-1-sulfonate]: the “Minimum inhibitory concentration (MIC)” value in experiment [2] (medium B-TSA) was 3.13 µg/mL; in experiment [3] (medium TSA), greater than 100 µg/mL; in experiment [4] (medium TSA) it was 12.5 µg/mL; with Candida albicans TA (medium TSA), greater than 100 µg/mL; in experiment [5] (medium B-TSA), 0.39 µg/mL; in experiment [6] (medium TSA), 3.13 µg/mL. The “Minimum inhibitory concentration (MIC)” value in [7] (medium TSA) is 3.13 µg/mL; in experiment [8] (medium B-TSA), 25 µg/mL; in the experiment on Escherichia coli 0-111, 0.2 µg/mL; in experiment [9] (medium TSA), 1.56 µg/mL; in experiment [10] (medium B-TSA) it was 3.13 µg/mL; in experiment [11] (medium TSA), 25 µg/mL. For the same compound, the “Minimum inhibitory concentration (MIC)” value in [12] (medium TSA) is 50 µg/mL; in experiment [13] (medium B-TSA) it was greater than 100 µg/mL; in [14] (medium B-TSA), 1.56 µg/mL; in the experiment on Klebsiella pneumoniae DT (medium TSA), 0.78 µg/mL; in experiment [15] (medium B-TSA) it was greater than 100 µg/mL; in [16] (medium TSA), 3.13 µg/mL. Further, the “Minimum inhibitory concentration (MIC)” value was greater than 100 µg/mL with Escherichia coli T-7; 0.78 µg/mL in [17] (medium TSA); 6.25 µg/mL in experiment [18] (medium B-TSA); 6.25 µg/mL in experiment [18] (medium TSA); 6.25 µg/mL in [19] (medium TSA); less than 0.1 µg/mL in [20] (medium TSA). For the same compound, the “Minimum inhibitory concentration (MIC)” value in [21] (medium TSA) came to 3.13 µg/mL.
Turning to `CCN1CCN(C(=O)N[C@@H](C(=O)NC2(OC)CN(S(=O)(=O)O)C2=O)c2ccccc2)C(=O)C1=O` (single isomer, unassigned) [Compound C, Sodium 3-[D(-)-N-(4-ethyl-2,3-dioxo-1-piperazinocarbonyl)phenylglycinamido]-3-methoxy-2-oxoazetidine-1-sulfonate], the MIC was 12.5 µg/mL in the experiment with Escherichia coli 0-111, greater than 100 µg/mL in experiment [22], 12.5 µg/mL with Klebsiella pneumoniae DT and 12.5 µg/mL in experiment [20].
